Test results reported in ChEMBL document CHEMBL4346710, “Discovery of 7H-pyrrolo[2,3-d]pyrimidine derivatives as selective covalent irreversible inhibitors of interleukin-2-inducible T-cell kinase (Itk)” (Eur J Med Chem, 2019).
Activity calls are given as the source filed them. No cut-off for these calls is given here.

Assays:
[1] = target: T1, Tyrosine-protein kinase ITK/TSK (Homo sapiens, UniProt Q08881); assay: Inhibition of recombinant human N-terminal His6-tagged ITK (352 to 617 residues) expressed in baculovirus infected Sf21 insect cells using STK substrate by HTRF assay
T1 sequence (Q08881 whole entry): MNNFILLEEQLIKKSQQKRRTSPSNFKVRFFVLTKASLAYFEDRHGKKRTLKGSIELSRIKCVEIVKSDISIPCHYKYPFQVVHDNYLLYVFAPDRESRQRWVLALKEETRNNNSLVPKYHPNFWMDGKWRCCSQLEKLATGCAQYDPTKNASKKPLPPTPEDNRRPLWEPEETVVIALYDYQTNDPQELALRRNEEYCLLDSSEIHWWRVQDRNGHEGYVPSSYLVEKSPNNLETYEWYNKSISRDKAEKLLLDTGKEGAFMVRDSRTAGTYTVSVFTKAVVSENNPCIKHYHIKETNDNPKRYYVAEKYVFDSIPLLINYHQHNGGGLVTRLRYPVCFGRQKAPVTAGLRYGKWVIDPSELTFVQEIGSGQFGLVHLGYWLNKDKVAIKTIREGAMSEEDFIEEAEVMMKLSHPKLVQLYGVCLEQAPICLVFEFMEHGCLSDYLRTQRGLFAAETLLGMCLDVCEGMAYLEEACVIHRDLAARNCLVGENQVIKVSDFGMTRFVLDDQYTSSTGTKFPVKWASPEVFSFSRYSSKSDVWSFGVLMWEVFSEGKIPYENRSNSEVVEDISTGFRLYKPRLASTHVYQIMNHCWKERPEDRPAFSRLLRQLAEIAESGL

[2] = target: Tyrosine-protein kinase BTK (Homo sapiens, UniProt Q06187); assay: Inhibition of recombinant human full-length N-terminal His6-tagged BTK expressed in baculovirus infected Sf21 insect cells using STK substrate by HTRF assay
[3] = target: T2, Tyrosine-protein kinase JAK3 (Homo sapiens, UniProt P52333); assay: Inhibition of recombinant human N-terminal His6-tagged JAK3 (781 to end residues) expressed in baculovirus infected Sf21 cells using STK as substrate by HTRF assay
T2 sequence (P52333 whole entry): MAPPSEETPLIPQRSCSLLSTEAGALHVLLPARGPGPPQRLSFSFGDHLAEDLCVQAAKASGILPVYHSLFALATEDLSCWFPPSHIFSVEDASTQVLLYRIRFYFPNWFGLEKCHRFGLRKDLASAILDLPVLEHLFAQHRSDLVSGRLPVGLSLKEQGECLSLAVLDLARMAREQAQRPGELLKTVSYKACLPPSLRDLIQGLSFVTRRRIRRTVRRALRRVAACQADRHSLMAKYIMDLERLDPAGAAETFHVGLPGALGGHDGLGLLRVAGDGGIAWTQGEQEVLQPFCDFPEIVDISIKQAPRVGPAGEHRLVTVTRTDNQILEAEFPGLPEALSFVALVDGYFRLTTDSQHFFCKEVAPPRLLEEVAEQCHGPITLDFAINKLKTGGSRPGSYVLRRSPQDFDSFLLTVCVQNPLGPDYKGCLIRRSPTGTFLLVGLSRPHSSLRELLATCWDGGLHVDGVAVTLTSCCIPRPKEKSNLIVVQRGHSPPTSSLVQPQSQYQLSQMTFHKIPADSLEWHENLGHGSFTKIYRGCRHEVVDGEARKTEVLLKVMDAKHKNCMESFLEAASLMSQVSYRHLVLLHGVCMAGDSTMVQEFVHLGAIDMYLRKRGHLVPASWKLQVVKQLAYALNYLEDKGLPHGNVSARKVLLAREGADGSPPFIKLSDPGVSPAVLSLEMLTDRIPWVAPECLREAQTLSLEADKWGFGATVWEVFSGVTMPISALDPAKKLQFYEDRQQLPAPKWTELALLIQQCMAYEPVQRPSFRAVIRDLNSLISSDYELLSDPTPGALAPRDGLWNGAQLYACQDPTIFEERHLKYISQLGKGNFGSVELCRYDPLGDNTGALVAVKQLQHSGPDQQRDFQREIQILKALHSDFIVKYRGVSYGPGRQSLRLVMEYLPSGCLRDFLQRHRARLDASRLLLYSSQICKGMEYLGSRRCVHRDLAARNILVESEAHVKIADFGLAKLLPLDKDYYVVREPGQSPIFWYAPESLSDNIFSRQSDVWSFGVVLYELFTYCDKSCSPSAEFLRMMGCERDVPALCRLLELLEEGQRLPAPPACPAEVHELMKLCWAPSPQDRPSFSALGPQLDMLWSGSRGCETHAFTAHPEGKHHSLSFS

[4] = target: Epidermal growth factor receptor (Homo sapiens, UniProt P00533); assay: Inhibition of recombinant human N-terminal GST-tagged EGFR kinase domain (696 to end residues) expressed in baculovirus infected Sf21 insect cells using STK as substrate by HTRF assay
[5] = target: T3, Tyrosine-protein kinase ITK/TSK (Homo sapiens) (UniProt Q08881); assay: Covalent binding affinity to recombinant human ITK assessed as binding to Cys442 residue at 50 uM incubated for 24 hrs prior to trypsin addition for 4 hrs and boiled for 3 min followed by chymotrypsin addition and measured after overnight incubation by LC/MS/MS analysis
T3 sequence (whole entry): T1 sequence (Q08881 whole entry)

[6] = target: T3, Tyrosine-protein kinase ITK/TSK (Homo sapiens); assay: Inhibition of recombinant human N-terminal His6-tagged ITK (352 to 617 residues) expressed in baculovirus infected Sf21 insect cells assessed as inactivation rate constant using STK substrate by HTRF assay
[7] = target: T3, Tyrosine-protein kinase ITK/TSK (Homo sapiens); assay: Inhibition of recombinant human N-terminal His6-tagged ITK (352 to 617 residues) expressed in baculovirus infected Sf21 insect cells assessed as ratio of Kinact to Ki using STK substrate by HTRF assay
[8] = target: T3, Tyrosine-protein kinase ITK/TSK (Homo sapiens); assay: Inhibition of ITK in human Jurkat cells assessed as reduction in anti-CD3/CD28-stimulated PLCgamma1 phosphorylation at 0.1 to 10000 nM preincubated for 2 hrs followed by anti-CD3/CD28 beads addition and measured after 30 min by Western blot analysis; type: cell-based
[9] = target: T1, Tyrosine-protein kinase ITK/TSK; assay: Inhibition of kinase tracer 236 binding to recombinant full length GST-tagged human ITK cytoplasmic domain expressed in baculovirus expression system incubated for 60 mins by Lanthascreen assay
[10] = target: Tyrosine-protein kinase Blk (Homo sapiens, UniProt P51451); assay: Inhibition of BLK (unknown origin) using […] as substrate by HTRF assay
H9 = assay: Growth inhibition of human H9 cells incubated for 72 hrs by CellTiter-Glo luminescent cell viability assay; type: functional; conditions: H9, 72 h
CCRF-CEM = assay: Growth inhibition of human CCRF-CEM cells incubated for 72 hrs by CellTiter-Glo luminescent cell viability assay; type: functional
MOLT-4 = assay: Growth inhibition of human MOLT4 cells incubated for 72 hrs by CellTiter-Glo luminescent cell viability assay; type: functional; conditions: MOLT-4, 72 h
Jurkat = assay: Growth inhibition of human Jurkat cells incubated for 72 hrs by CellTiter-Glo luminescent cell viability assay; type: functional
HEK-293T = assay: Growth inhibition of HEK293T cells incubated for 72 hrs by CellTiter-Glo luminescent cell viability assay; type: functional; conditions: Homo sapiens
[11] = target: T3, Tyrosine-protein kinase ITK/TSK (Homo sapiens); assay: Inhibition of human ITK at 1 uM using MAP as substrate in presence of [gamma33P]-ATP relative to control

Chain of Epidermal growth factor receptor (P00533 whole entry, the tested form may be a part): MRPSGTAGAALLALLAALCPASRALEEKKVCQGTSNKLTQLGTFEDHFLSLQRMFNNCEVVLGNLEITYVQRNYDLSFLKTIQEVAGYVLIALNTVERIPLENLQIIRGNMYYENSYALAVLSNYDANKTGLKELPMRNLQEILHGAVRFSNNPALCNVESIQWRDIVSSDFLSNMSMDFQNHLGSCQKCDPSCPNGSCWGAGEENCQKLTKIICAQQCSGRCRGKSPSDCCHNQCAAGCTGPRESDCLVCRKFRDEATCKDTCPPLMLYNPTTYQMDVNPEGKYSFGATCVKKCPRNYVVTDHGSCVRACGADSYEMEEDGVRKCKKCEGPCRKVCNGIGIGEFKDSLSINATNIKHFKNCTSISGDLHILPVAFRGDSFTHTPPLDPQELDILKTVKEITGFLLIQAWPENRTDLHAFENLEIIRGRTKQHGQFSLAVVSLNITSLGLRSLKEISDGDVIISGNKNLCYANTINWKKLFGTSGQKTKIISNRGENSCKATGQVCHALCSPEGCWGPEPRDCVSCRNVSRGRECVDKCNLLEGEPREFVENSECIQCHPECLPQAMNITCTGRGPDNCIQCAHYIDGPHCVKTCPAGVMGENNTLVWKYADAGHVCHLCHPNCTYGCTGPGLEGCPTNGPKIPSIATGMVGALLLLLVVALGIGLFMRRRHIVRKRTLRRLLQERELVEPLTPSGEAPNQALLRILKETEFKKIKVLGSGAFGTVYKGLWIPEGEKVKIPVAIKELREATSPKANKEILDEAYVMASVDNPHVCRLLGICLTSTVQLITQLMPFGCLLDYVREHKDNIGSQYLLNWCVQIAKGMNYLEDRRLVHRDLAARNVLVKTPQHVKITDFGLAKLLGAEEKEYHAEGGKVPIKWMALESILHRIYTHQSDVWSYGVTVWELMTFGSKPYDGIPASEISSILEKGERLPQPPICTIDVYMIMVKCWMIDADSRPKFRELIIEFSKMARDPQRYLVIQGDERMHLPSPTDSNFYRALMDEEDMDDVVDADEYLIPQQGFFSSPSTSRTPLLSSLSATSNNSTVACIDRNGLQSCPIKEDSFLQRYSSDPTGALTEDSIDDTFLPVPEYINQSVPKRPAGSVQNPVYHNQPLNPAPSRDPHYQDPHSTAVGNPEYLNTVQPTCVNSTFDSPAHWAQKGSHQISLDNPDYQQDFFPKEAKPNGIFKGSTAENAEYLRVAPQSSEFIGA
Chain of Tyrosine-protein kinase BTK (Q06187 whole entry): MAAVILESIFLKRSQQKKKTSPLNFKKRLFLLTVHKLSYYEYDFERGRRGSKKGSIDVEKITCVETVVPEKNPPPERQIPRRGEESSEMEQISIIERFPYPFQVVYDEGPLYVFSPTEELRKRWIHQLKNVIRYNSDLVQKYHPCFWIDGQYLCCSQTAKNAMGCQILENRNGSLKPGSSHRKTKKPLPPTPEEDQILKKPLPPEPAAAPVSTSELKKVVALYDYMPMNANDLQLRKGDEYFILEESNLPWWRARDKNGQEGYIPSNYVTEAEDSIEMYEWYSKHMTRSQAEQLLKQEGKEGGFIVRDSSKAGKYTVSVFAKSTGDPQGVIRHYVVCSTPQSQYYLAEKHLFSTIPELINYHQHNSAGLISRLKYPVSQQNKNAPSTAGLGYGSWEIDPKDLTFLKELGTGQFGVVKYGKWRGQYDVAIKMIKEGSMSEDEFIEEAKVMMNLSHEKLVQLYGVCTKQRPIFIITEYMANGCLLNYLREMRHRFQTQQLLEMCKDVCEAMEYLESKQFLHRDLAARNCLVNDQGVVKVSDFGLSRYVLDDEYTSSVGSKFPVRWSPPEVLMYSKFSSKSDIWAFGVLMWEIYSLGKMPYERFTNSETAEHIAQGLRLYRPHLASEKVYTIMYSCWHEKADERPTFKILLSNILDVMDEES
Chain of Tyrosine-protein kinase Blk (P51451 whole entry): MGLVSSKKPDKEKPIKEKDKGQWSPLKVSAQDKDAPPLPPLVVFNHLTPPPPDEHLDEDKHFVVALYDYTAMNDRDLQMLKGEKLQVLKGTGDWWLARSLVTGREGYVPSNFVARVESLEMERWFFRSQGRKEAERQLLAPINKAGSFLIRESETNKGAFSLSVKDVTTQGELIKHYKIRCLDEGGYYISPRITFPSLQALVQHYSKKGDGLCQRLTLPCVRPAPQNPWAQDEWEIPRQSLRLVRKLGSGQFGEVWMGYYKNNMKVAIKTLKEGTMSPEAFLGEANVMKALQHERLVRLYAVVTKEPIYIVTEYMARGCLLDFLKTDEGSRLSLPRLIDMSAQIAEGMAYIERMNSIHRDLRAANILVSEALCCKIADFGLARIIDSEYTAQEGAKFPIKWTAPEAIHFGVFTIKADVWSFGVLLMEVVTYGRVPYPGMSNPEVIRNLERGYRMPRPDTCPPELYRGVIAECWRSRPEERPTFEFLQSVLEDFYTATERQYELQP

| IC50 [1] | IC50 [2] | IC50 [3] | IC50 [4] | Compound | further results |
| --- | --- | --- | --- | --- | --- |
| 55 nM | > 3000 nM | 61 nM | > 3000 nM | C#CCCN1CCN(c2ccc(Nc3nc(OC4CCN(C(=O)C=C)CC4)c4c(-c5cncc(NC)n5)c[nH]c4n3)cc2)CC1 | – |
| 5.4 nM | 8 nM | – | – | C=CC(=O)Nc1cccc(Oc2nc(Nc3ccc(N4CCN(C(C)=O)CC4)cc3)nc3[nH]cc(-c4cncc(NC)n4)c23)c1 | – |
| 375 nM | > 10000 nM | – | – | C=CC(=O)N1CCC[C@H](Oc2nc(Nc3ccc(N4CCN(C(C)=O)CC4)cc3)nc3[nH]cc(-c4cncc(NC)n4)c23)C1 | – |
| 2.2 nM | 286 nM | 69 nM | 150 nM | C=CC(=O)N1CCC[C@@H]1COc1nc(Nc2ccc(N3CCN(C(C)=O)CC3)cc2)nc2[nH]cc(-c3cncc(NC)n3)c12 | – |
| < 1.26 nM | 36 nM | 4.2 nM | 38 nM | C=CC(=O)N1CCC(Oc2nc(Nc3ccc(N4CCOCC4)cc3)nc3[nH]cc(-c4ccnc(NC)c4)c23)CC1 | – |
| 7.1 nM | 1610 nM | 186 nM | 937 nM | CNc1cncc(-c2c[nH]c3nc(Nc4ccc(N5CCN(C(C)=O)CC5)cc4)nc(OC4CCOCC4)c23)n1 | – |

Continued, molecule first:

| Compound | IC50 [1] | IC50 [2] | IC50 [3] | IC50 [4] | further results |
| --- | --- | --- | --- | --- | --- |
| C=CC(=O)N1CCC(Oc2nc(Nc3ccc(N4CCOCC4)cc3)nc3[nH]cc(-c4cccc(NC)n4)c23)CC1 | 74 nM | > 10000 nM | 1430 nM | > 3000 nM | – |
| C=CC(=O)N1CCC[C@@H](Oc2nc(Nc3ccc(N4CCOCC4)cc3)nc3[nH]cc(-c4cncc(NC)n4)c23)C1 | < 1.26 nM | 35 nM | 11 nM | 138 nM | Activity [5]: Active; Ki [1]: 5.8 nM; K [6]: 0.31 min⁻¹; Ratio [7]: 891 ×10³ /M.s; inhibition [8]: Active |
| C=CC(=O)N1CCC[C@@H](Oc2nc(Nc3ccc(N4CCN(CC)CC4)cc3)nc3[nH]cc(-c4cncc(NC)n4)c23)C1 | 1.3 nM | 26 nM | 1.2 nM | 8.7 nM | – |
| CNc1cncc(-c2c[nH]c3nc(Nc4ccc(N5CCN(C(C)=O)CC5)cc4)nc(Oc4ccccc4)c23)n1 | 5.4 to 19 nM | 1460 nM | 470 nM | 1050 nM | – |
| COc1ccc(-c2c[nH]c3nc(Nc4ccc(N5CCOCC5)cc4)nc(Oc4ccccc4)c23)cc1 | – | – | – | – | IC50 [9]: > 10000 nM |
| Nc1ccc(-c2c[nH]c3nc(Nc4ccc(N5CCOCC5)cc4)nc(Oc4ccccc4)c23)cc1 | – | – | – | – | IC50 [9]: > 10000 nM |
| CNc1cncc(-c2c[nH]c3nc(Nc4ccc(N5CCN(C(C)=O)CC5)cc4)nc(OC4CCCCC4)c23)n1 | 5.1 nM | 1470 nM | 104 nM | 654 nM | – |
| C=CC(=O)N1CCC(Oc2nc(Nc3ccc(N4CCN(C(C)=O)CC4)cc3)nc3[nH]cc(-c4cncc(NC)n4)c23)CC1 | 2.3 nM | 1480 nM | 51 nM | 903 nM | – |
| C=CC(=O)Nc1cccc(Oc2nc(Nc3ccc(N4CCOCC4)cc3)nc3[nH]cc(-c4ccncc4)c23)c1 | 0.5 nM | 3.9 nM | 0.6 nM | 2.3 nM | IC50 [10]: 0.7 nM |
| C=CC(=O)N1CCC[C@@H](Oc2nc(Nc3ccc(N4CCN(C(C)=O)CC4)cc3)nc3[nH]cc(-c4cncc(NC)n4)c23)C1 | 3.7 nM | 270 nM | 24 nM | 499 nM | Ki [1]: 33.7 nM; K [6]: 0.31 min⁻¹; Ratio [7]: 153 ×10³ /M.s; inhibition [8]: Active |
| C=CC(=O)N1CCC[C@H]1COc1nc(Nc2ccc(N3CCN(C(C)=O)CC3)cc2)nc2[nH]cc(-c3cncc(NC)n3)c12 | 7.8 nM | 434 nM | 3.7 nM | 1970 nM | – |
| C=CC(=O)N1CCC(Oc2nc(Nc3ccc(N4CCOCC4)cc3)nc3[nH]cc(-c4cncc(NC)c4)c23)CC1 | 3.6 nM | 942 nM | 84 nM | > 3000 nM | GI50 (H9): 190 nM; GI50 (CCRF-CEM): 48 nM; GI50 (MOLT-4): 109 nM; GI50 (Jurkat): 188 nM; GI50 (HEK-293T): 270 nM |
| C=CC(=O)Nc1cccc(Oc2nc(Nc3ccc(N4CCN(C)CC4)c(F)c3)nc3[nH]ccc23)c1 | – | – | – | – | inhibition [11]: 80% |
